Experimental data reported in patent US20130344055A1, “ANTIMICROBIAL AGENTS” (priority 2010, published 2013).

Tests used:
[1] = test system: P. aeruginosa PAO1p cells; experiment: Antimicrobial activity of different peptide stretches; settings: 30 minutes at room temperature; for Antimicrobial effects against P. aeruginosa (relative inactivation): peptide at 3 μM/L (equimolar to AMP)
Procedure: The bacteria colonies on the agar plates were counted after an overnight incubation at 37° C. Based on the counted cell numbers the antibacterial activity as the relative inactivation in logarithmic units (=log 10N0/Ni with N0=number of untreated cells (of the control) and Ni=number of treated cells, both counted after incubation) is calculated. The reduction in the number of bacteria colonies after treatment with a peptide stretch is indicative for an antimicrobial activity of the peptide stretch, because the bacterial cells are lysed due to the treatment with the peptide stretch. All samples were replicated in four fold.

[2] = test system: Salmonella bacteria; experiment: In vitro antibacterial activity of STM0016 fusion variants; type: cell-based; settings: with EDTA 0.5 mM; 10^6 cells/ml; 30 minutes at RT
Procedure: Exponential growing Gram-negative bacterial cells (OD600 nm=0.6) were 100-fold diluted to a final density of about 10^6 cells/ml in 5 mM HEPES pH 7.4 and incubated for 30 minutes at room temperature without shaking with the different modified OBPgpLYS variants (in Elution Buffer in an end concentration of 1500 nM). After incubation cell suspensions and as a control untreated bacterial cells without any added modified OBPgpLYS variant were diluted three times (respectively 10^5-10^4-10^3 cells/ml) in 1× concentrated PBS buffer and 100 μl of each dilution was plated out on LB-medium. […] All samples were replicated in threefold. Averages +/− standard deviations are represented.
The purification of the fusion proteins and the antimicrobial activity assay was performed as described in Example 1.

[3] = test system: Listeria bacteria; experiment: In vitro antibacterial activity of Ply511 fusion variants; type: cell-based; settings: with EDTA 0.5 mM; 10^6 cells/ml; 30 minutes at RT

PK2: polycationic peptide KRKKRKKRKRSKRKKRKKRK
Antimicrobial activity against P. aeruginosa (relative inactivation) [1]: same antimicrobial activity against P. aeruginosa as SMAP-29 used in a concentration of 3 mmol/L | Antimicrobial effects against P. aeruginosa (relative inactivation) [1]: no or only minor antimicrobial effects

PK: polycationic peptide KRKKRKKRK
Antimicrobial effects against P. aeruginosa (relative inactivation) [1]: no or only minor antimicrobial effects

STM0016-Melittin: STM0016 fusion variant with one peptide stretch, Melittin
Average log reduction, Salmonella [2]: +/− (+/−: <1 log)

B1: P1y511-Magainin: Ply511 fusion variant with one peptide stretch, Magainin (protein)
chain: MVKYTVENKIIAGLPKGKLKGANFVIAHETANSKSTIDNEVSYMTRNWKNAFVTHFVGGGGRVVQVANVNYVSWGAGQYANSYSYAQVELCRTSNATTFKKDYEVYCQLLVDLAKKAGIPITLDSGSKTSDKGIKSHKWVADKLGGTTHQDPYAYLSSWGISKAQFASDLAKVSGGGNTGTAPAKPSTPAPKPSTPSTNLDKLGLVDYMNAKKMDSSYSNRDKLAKQYGIANYSGTASQNTTLLSKIKGGAPKPSTPAPKPSTSTAKKIYFPPNKGNWSVYPTNKAPVKANAIGAINPTKFGGLTYTIQKDRGNGVYEIQTDQFGRVQVYGAPSTGAVIKKGIGKFLHSAKKFGKAFVGEIMNS
Average log reduction, Listeria [3]: ++ (++: 2-3 log)

B2: STM0016-LL37: STM0016 fusion variant with one peptide stretch, LL37 (protein)
chain: MNPIIDGIIALEGGYVFNPKDKGGATHWGITEATARAHGYAGDMRDLTHAEAYAILEEDYWIKPGFDVISTLSWPVSFELCDAAVNIGAYHPSAWLQRWLNVFNHEGKRYPDIHVDGNIGPRTLAALEHYLAWRGQEGEAVLVKALNCSQGTYYLNVAEKNHNNEQFIYGWIKNRVTLLGDFFRKSKEKIGKEFKRIVQRIKDFLRNLVPRTES
Average log reduction, Salmonella [2]: + (+: 1 log)

B3: P1y511-BuforinII: Ply511 fusion variant with one peptide stretch, Buforin II (protein)
chain: MVKYTVENKIIAGLPKGKLKGANFVIAHETANSKSTIDNEVSYMTRNWKNAFVTHFVGGGGRVVQVANVNYVSWGAGQYANSYSYAQVELCRTSNATTFKKDYEVYCQLLVDLAKKAGIPITLDSGSKTSDKGIKSHKWVADKLGGTTHQDPYAYLSSWGISKAQFASDLAKVSGGGNTGTAPAKPSTPAPKPSTPSTNLDKLGLVDYMNAKKMDSSYSNRDKLAKQYGIANYSGTASQNTTLLSKIKGGAPKPSTPAPKPSTSTAKKIYFPPNKGNWSVYPTNKAPVKANAIGAINPTKFGGLTYTIQKDRGNGVYEIQTDQFGRVQVYGAPSTGAVIKKTRSSRAGLQFPVGRVHRLLRK
Average log reduction, Listeria [3]: ++ (++: 2-3 log)

B4: P1y511-BuforinII-Magainin: Ply511 with Buforin II C-terminal of the enzyme, followed by Magainin (protein)
chain: MVKYTVENKIIAGLPKGKLKGANFVIAHETANSKSTIDNEVSYMTRNWKNAFVTHFVGGGGRVVQVANVNYVSWGAGQYANSYSYAQVELCRTSNATTFKKDYEVYCQLLVDLAKKAGIPITLDSGSKTSDKGIKSHKWVADKLGGTTHQDPYAYLSSWGISKAQFASDLAKVSGGGNTGTAPAKPSTPAPKPSTPSTNLDKLGLVDYMNAKKMDSSYSNRDKLAKQYGIANYSGTASQNTTLLSKIKGGAPKPSTPAPKPSTSTAKKIYFPPNKGNWSVYPTNKAPVKANAIGAINPTKFGGLTYTIQKDRGNGVYEIQTDQFGRVQVYGAPSTGAVIKKTRSSRAGLQFPVGRVHRLLRKGIGKFLHSAKKFGKAFVGEIMNS
Average log reduction, Listeria [3]: +++ (+++: 4 or more logs)
